The text below walks through data of US11998532B1 (priority 2023, dated 2024).

The structures appear in SMILES notation. ≈ marks a conversion by molar mass, not a printed value.

For the test, the system named is multidrug-resistant (MDR) strains of Mycobacterium tuberculosis. Kind of test: microbe, parasite or virus in culture. It is filed as cell-based. The conditions noted are these: 192 h, read-out: MIC MDR-TB.
Regarding `COc1ccc(Cl)cc1-n1ncc(-c2nnc(-c3ccc(Cl)cc3)o2)c1C` [Compound 7a, 2-(1-(5-Chloro-2-methoxyphenyl)-5-methyl-1H-pyrazol-4-yl)-5-(4-chlorophenyl)-1,3,4-oxadiazole], the MIC was found to be 16 µg/mL (≈ 39.9 µM).

In the case of `COc1ccc(Cl)cc1-n1ncc(-c2nnc(-c3ccc(F)cc3)o2)c1C` [Compound 7b, 2-(1-(5-Chloro-2-methoxyphenyl)-5-methyl-1H-pyrazol-4-yl)-5-(4-fluorophenyl)-1,3,4-oxadiazole], the MIC worked out at 8 µg/mL (≈ 20.8 µM).

In the case of `COc1ccc(Cl)cc1-n1ncc(-c2nnc(-c3ccc(C)c(Br)c3)o2)c1C` [Compound 7c, 2-(3-Bromo-4-methylphenyl)-5-(1-(5-chloro-2-methoxyphenyl)-5-methyl-1H-pyrazol-4-yl)-1,3,4-oxadiazole], the MIC was found to be 64 µg/mL (≈ 139 µM).

Take `COc1ccc(Cl)cc1-n1ncc(-c2nnc(-c3ccccc3)o2)c1C` [Compound 7d, 2-(1-(5-Chloro-2-methoxyphenyl)-5-methyl-1H-pyrazol-4-yl)-5-phenyl-1,3,4-oxadiazole]: the MIC amounted to 32 µg/mL (≈ 87.2 µM).

Regarding `COc1ccc(Cl)cc1-n1ncc(-c2nnc(-c3ccc(Br)cc3)o2)c1C` [Compound 7e, 2-(4-Bromophenyl)-5-(1-(5-chloro-2-methoxyphenyl)-5-methyl-1H-pyrazol-4-yl)-1,3,4-oxadiazole], the MIC is 16 µg/mL (≈ 35.9 µM).

Regarding `COc1ccc(Cl)cc1-n1ncc(-c2nnc(-c3ccc(Br)c(C)c3)o2)c1C` [Compound 7f, 2-(4-Bromo-3-methylphenyl)-5-(1-(5-chloro-2-methoxyphenyl)-5-methyl-1H-pyrazol-4-yl)-1,3,4-oxadiazole], the MIC is 64 µg/mL (≈ 139 µM).

On to `COc1ccc(Cl)cc1-n1ncc(-c2nnc(-c3cccc(F)c3)o2)c1C` [Compound 7g, 2-(1-(5-Chloro-2-methoxyphenyl)-5-methyl-1H-pyrazol-4-yl)-5-(3-fluorophenyl)-1,3,4-oxadiazole], for which the MIC turned out to be 32 µg/mL (≈ 83.2 µM).

`COc1ccc(Cl)cc1-n1ncc(-c2nnc(-c3cc(Cl)cc(Cl)c3)o2)c1C` [Compound 7h, 2-(1-(5-Chloro-2-methoxyphenyl)-5-methyl-1H-pyrazol-4-yl)-5-(3,5-dichlorophenyl)-1,3,4-oxadiazole]: the MIC was 16 µg/mL (≈ 36.7 µM).

As for `COc1ccc(Cl)cc1-n1ncc(-c2nnc(-c3ccc(Cl)c(Cl)c3)o2)c1C` [Compound 7i, 2-(1-(5-Chloro-2-methoxyphenyl)-5-methyl-1H-pyrazol-4-yl)-5-(3,4-dichlorophenyl)-1,3,4-oxadiazole], the MIC amounted to 32 µg/mL (≈ 73.4 µM).

On to `COc1ccc(Cl)cc1-n1ncc(-c2nnc(-c3ccc(C)c([N+](=O)[O-])c3)o2)c1C` [Compound 7j, 2-(1-(5-Chloro-2-methoxyphenyl)-5-methyl-1H-pyrazol-4-yl)-5-(4-methyl-3-nitrophenyl)-1,3,4-oxadiazole], for which the MIC was found to be 64 µg/mL (≈ 150 µM).
